Legend:
HT29 cells = test: Inhibition of cell necrosis (CCK8 method), HT29 cells; format: cell-based, human; conditions: for IC50: HT29, Human TNF-α/AT-406/Z-VAD-FMK, 16 hours, CCK8
Description: (§1) In this assay example 2, under the condition of inducing programmed cell necrosis of HT29 and L929 cell lines, different concentrations of the test compounds were added to test the IC50 of the rescue effect of the test compounds on the programmed necrosis.
(§2) • Compounds: dissolved in DMSO to make a 10 mM solution; • TNF-α: initial concentration of 100 µg/mL; • Z-VAD-FMK: dissolved in DMSO to make a 10 mM solution; • AT-406: dissolved in DMSO to make a 10 mM solution. • Cell lines: HT29 cells were cultured in McCoy's 5A medium containing 10% fetal bovine serum, 100 U/mL penicillin, and 100 µg/mL streptomycin, and L929 cells were cultured in MEM medium containing 10% horse serum, 100 U/mL penicillin, and 100 µg/mL streptomycin.
(§3) 1. The test compound was dissolved in DMSO to form a stock solution, and a gradient dilution was performed; the solution was then diluted with the corresponding culture medium to obtain a solution with 10 times the working concentration.
(§4) 2. The cells in the logarithmic growth phase were diluted with culture medium to a specific cell concentration. 80 µL of the cell suspension was added to a 96-well plate, so that the cell densities of HT29 and L929 were 1.2*10^4 cells/well and 2.0*10^4 cells/well, respectively. The plate was cultured in a 37° C., 5% carbon dioxide incubator overnight.
(§5) 3. […] of the compound solution was added to each well of the 96-well plate inoculated with cells. The compounds to be tested were serially diluted 4-fold to obtain 9 concentrations in duplicate, starting from a maximum concentration of 10 μM. At the same time, a control group without compound addition was set up.
(§6) 4. After the cells were cultured for another 30 minutes, 10 μL of the inducer mixture was added to each well. The final concentrations of Human TNF-α, AT-406 and Z-VAD-FMK in HT29 cells were 20 ng/mL, […] and 20 μM, respectively; and the final concentrations of Murine TNF-α and Z-VAD-FMK in L929 cells were 20 ng/mL and 25 μM, respectively.
(§7) 5. The 96-well plate in which compounds and inducer were added was placed in a 37° C., 5% carbon dioxide incubator for further culture, wherein HT29 cells were cultured for 16 hours and L929 cells were cultured for 4-8 hours. Cell viability was detected by CCK8. GraphPad Prism software was used to prepare a dose-effect curve and IC50 was calculated.

L929 cells = test: Inhibition of cell necrosis (CCK8 method), L929 cells; format: cell-based, mouse; conditions: for IC50: 4-8 hours, CCK8
Description: as §1, §2, §3, §4, §5, §6, §7

[1] = Mus musculus, L929, L929, Murine TNF-α/Z-VAD-FMK

## Cc1ccc(OCCCO)cc1-c1ccnc(N2CCC(C(=O)N3N=CCC3c3ccccc3F)CC2)c1 (stereo not shown) [Example 20, (5-(2-fluorophenyl)-4,5-dihydro-1H-pyrazol-1-yl)(1-(4-(5-(3-hydroxypropoxy)-2-methylphenyl)pyridin-2-yl)piperidin-4-yl)methanone]
HT29 cells
  IC50: 0.01 to 0.05 µM
L929 cells; L929, Murine TNF-α/Z-VAD-FMK
  IC50: 0.01 to 0.05 µM

## O=C(C1CCN(c2cc(-c3cc(OCCO)ccc3F)ccn2)CC1)N1N=CCC1c1cc(F)cc(F)c1 (stereo not shown) [Example 22, (5-(3,5-difluorophenyl)-4,5-dihydro-1H-pyrazol-1-yl)(1-(4-(2-fluoro-5-(2-hydroxyethoxy)phenyl)pyridin-2-yl)piperidin-4-yl)methanone]
HT29 cells; Homo sapiens, HT-29, 16 h
  IC50: ≤ 0.01 µM
L929 cells; [1]
  IC50: 0.05 to 0.1 µM

## O=C(C1CCN(c2cc(-c3cc(OCCCCCO)ccc3F)ccn2)CC1)N1N=CCC1c1cc(F)cc(F)c1 (stereo not shown) [Example 25, (5-(3,5-difluorophenyl)-4,5-dihydro-1H-pyrazol-1-yl)(1-(4-(2-fluoro-5-((5-hydroxypentyl)oxy)phenyl)pyridin-2-yl)piperidin-4-yl)methanone]
HT29 cells; Homo sapiens, HT-29, 16 h
  IC50: ≤ 0.01 µM
L929 cells; [1]
  IC50: 0.01 to 0.05 µM

## CC(C)(O)CCCCOc1ccc(F)c(-c2ccnc(N3CCC(C(=O)N4N=CCC4c4cc(F)cc(F)c4)CC3)c2)c1 (stereo not shown) [Example 26, (5-(3,5-difluorophenyl)-4,5-dihydro-1H-pyrazol-1-yl)(1-(4-(2-fluoro-5-((5-hydroxy-5-methylhexyl)oxy)phenyl)pyridin-2-yl)piperidin-4-yl)methanone]
HT29 cells; Homo sapiens, HT-29, 16 h
  IC50: ≤ 0.01 µM
L929 cells; [1]
  IC50: 0.01 to 0.05 µM

## O=C(C1CCN(c2cc(-c3cc(OCCCF)ccc3F)ccn2)CC1)N1N=CCC1c1cc(F)cc(F)c1 (stereo not shown) [Example 27, (5-(3,5-difluorophenyl)-4,5-dihydro-1H-pyrazol-1-yl)(1-(4-(2-fluoro-5-(3-fluoropropoxy)phenyl)pyridin-2-yl)piperidin-4-yl)methanone]
HT29 cells; Homo sapiens, HT-29, 16 h
  IC50: ≤ 0.01 µM
L929 cells; [1]
  IC50: 0.05 to 0.1 µM

## COCCOc1ccc(C)c(-c2ccnc(N3CCC(C(=O)N4N=CCC4c4ccccc4)CC3)c2)c1 (stereo not shown) [Example 28, (1-(4-(5-(2-methoxyethoxy)-2-methylphenyl)pyridin-2-yl)piperidin-4-yl)(5-phenyl-4,5-dihydro-1H-pyrazol-1-yl)methanone]
HT29 cells; Homo sapiens, HT-29, 16 h
  IC50: ≤ 0.01 µM
L929 cells; [1]
  IC50: 0.05 to 0.1 µM

## Cc1ccc(OCCCO)cc1-c1ccnc(N2CCC(C(=O)N3N=CCC3c3ccccc3F)CC2)c1 (stereo not shown) [Example 29, (5-(2-fluorophenyl)-4,5-dihydro-1H-pyrazol-1-yl)(1-(4-(5-(3-hydroxypropoxy)-2-methylphenyl)pyridin-2-yl)piperidin-4-yl)methanone]
HT29 cells; Homo sapiens, HT-29, 16 h
  IC50: 0.01 to 0.05 µM
L929 cells; L929, Murine TNF-α/Z-VAD-FMK
  IC50: 0.05 to 0.1 µM

## COCCCOc1ccc(F)c(-c2ccnc(N3CCC(C(=O)N4N=CCC4c4cc(F)cc(F)c4)CC3)c2)c1 (stereo not shown) [Example 30, (5-(3,5-difluorophenyl)-4,5-dihydro-1H-pyrazol-1-yl)(1-(4-(2-fluoro-5-(3-methoxypropoxy)phenyl)pyridin-2-yl)piperidin-4-yl)methanone]
HT29 cells; Homo sapiens, HT-29, 16 h
  IC50: ≤ 0.01 µM
L929 cells; [1]
  IC50: 0.05 to 0.1 µM

## Cc1ccc(OCCCO)cc1-c1ccnc(N2CCC(C(=O)N3N=CCC3c3ccccc3)CC2)c1 (stereo not shown) [Example 31, (1-(4-(5-(3-hydroxypropoxy)-2-methylphenyl)pyridin-2-yl)piperidin-4-yl)(5-phenyl-4,5-dihydro-1H-pyrazol-1-yl)methanone]
HT29 cells; Homo sapiens, HT-29, 16 h
  IC50: ≤ 0.01 µM
L929 cells; [1]
  IC50: 0.01 to 0.05 µM

## COCCCCOc1ccc(C)c(-c2ccnc(N3CCC(C(=O)N4N=CCC4c4cc(F)cc(F)c4)CC3)c2)c1 (stereo not shown) [Example 32, (5-(3,5-difluorophenyl)-4,5-dihydro-1H-pyrazol-1-yl)(1-(4-(5-(4-methoxybutoxy)-2-methylphenyl)pyridin-2-yl)piperidin-4-yl)methanone]
HT29 cells; Homo sapiens, HT-29, 16 h
  IC50: ≤ 0.01 µM
L929 cells; L929, Murine TNF-α/Z-VAD-FMK
  IC50: 0.01 to 0.05 µM

## Cc1ccc(OCC2CCOCC2)cc1-c1ccnc(N2CCC(C(=O)N3N=CCC3c3cc(F)cc(F)c3)CC2)c1 (stereo not shown) [Example 33, (5-(3,5-difluorophenyl)-4,5-dihydro-1H-pyrazol-1-yl)(1-(4-(2-methyl-5-((tetrahydro-2H-pyran-4-yl)methoxy)phenyl)pyridin-2-yl)piperidin-4-yl)methanone]
HT29 cells; Homo sapiens, HT-29, 16 h
  IC50: ≤ 0.01 µM
L929 cells; [1]
  IC50: 0.01 to 0.05 µM

## COCCCCOc1ccc(C)c(-c2ccnc(N3CCC(C(=O)N4N=CCC4c4cc(F)cc(F)c4)CC3)c2)c1 (stereo not shown) [Example 34, (5-(3,5-difluorophenyl)-4,5-dihydro-1H-pyrazol-1-yl)(1-(4-(5-(4-methoxybutoxy)-2-methylphenyl)pyridin-2-yl)piperidin-4-yl)methanone]
HT29 cells
  IC50: 0.01 to 0.05 µM
L929 cells; L929, Murine TNF-α/Z-VAD-FMK
  IC50: 0.05 to 0.1 µM

## Cc1ccc(OCCCCO)cc1-c1ccnc(N2CCC(C(=O)N3N=CCC3c3cc(F)cc(F)c3)CC2)c1 (stereo not shown) [Example 35, (5-(3,5-difluorophenyl)-4,5-dihydro-1H-pyrazol-1-yl)(1-(4-(5-(4-hydroxybutoxy)-2-methylphenyl)pyridin-2-yl)piperidin-4-yl)methanone]
HT29 cells
  IC50: 0.01 to 0.05 µM
L929 cells; L929, Murine TNF-α/Z-VAD-FMK
  IC50: 0.05 to 0.1 µM

## O=C(C1CCN(c2cc(-c3cc(OCCCCO)ccc3F)ccn2)CC1)N1N=CCC1c1cc(F)cc(F)c1 (stereo not shown) [Example 36, (5-(3,5-difluorophenyl)-4,5-dihydro-1H-pyrazol-1-yl)(1-(4-(2-fluoro-5-(4-hydroxybutoxy)phenyl)pyridin-2-yl)piperidin-4-yl)methanone]
HT29 cells; Homo sapiens, HT-29, 16 h
  IC50: ≤ 0.01 µM
L929 cells; [1]
  IC50: 0.05 to 0.1 µM

## O=C(C1CCN(c2cc(-c3cc(OCC(F)(F)CO)ccc3F)ccn2)CC1)N1N=CCC1c1cc(F)cc(F)c1 (stereo not shown) [Example 37, (1-(4-(5-(2,2-difluoro-3-hydroxypropoxy)-2-fluorophenyl)pyridin-2-yl)piperidin-4-yl) (5-(3,5-difluorophenyl)-4,5-dihydro-1H-pyrazol-1-yl)methanone]
HT29 cells; Homo sapiens, HT-29, 16 h
  IC50: ≤ 0.01 µM
L929 cells; [1]
  IC50: 0.01 to 0.05 µM

## O=C(C1CCN(c2nccc(-c3cc(OCCCO)ccc3F)n2)CC1)N1N=CCC1c1cc(F)cc(F)c1 (stereo not shown) [Example 38, (5-(3,5-difluorophenyl)-4,5-dihydro-1H-pyrazol-1-yl)(1-(4-(2-fluoro-5-(3-hydroxypropoxy)phenyl)pyrimidin-2-yl)piperidin-4-yl)methanone]
HT29 cells; Homo sapiens, HT-29, 16 h
  IC50: 0.01 to 0.05 µM
L929 cells; [1]
  IC50: 0.05 to 0.1 µM

## CC(C)(O)CCOc1ccc(F)c(-c2ccnc(N3CCC(C(=O)N4N=CCC4c4cc(F)cc(F)c4)CC3)n2)c1 (stereo not shown) [Example 39, (5-(3,5-difluorophenyl)-4,5-dihydro-1H-pyrazol-1-yl)(1-(4-(2-fluoro-5-(3-hydroxy-3-methylbutoxy)phenyl)pyrimidin-2-yl)piperidin-4-yl)methanone]
HT29 cells; Homo sapiens, HT-29, 16 h
  IC50: ≤ 0.01 µM
L929 cells; [1]
  IC50: 0.05 to 0.1 µM

## CCC(O)(CC)COc1ccc(F)c(-c2ccnc(N3CCC(C(=O)N4N=CCC4c4cc(F)cc(F)c4)CC3)c2)c1 (stereo not shown) [Example 44, [5-(3,5-difluorophenyl)-4,5-dihydro-1H-pyrazol-1-yl]-[1-[4-[5-(2-ethyl-2-hydroxybutoxy)-2-fluorophenyl]pyridin-2-yl]piperidin-4-yl]methanone]
HT29 cells; Homo sapiens, HT-29, 16 h
  IC50: ≤ 0.01 µM
L929 cells; [1]
  IC50: 0.01 to 0.05 µM

## O=C(C1CCN(c2cc(-c3cc(OCC4(O)CC4)ccc3F)ccn2)CC1)N1N=CCC1c1cc(F)cc(F)c1 (stereo not shown) [Example 45, [5-(3,5-difluorophenyl)-4,5-dihydro-1H-pyrazol-1-yl]-[1-[4-[2-fluoro-5-[(1-hydroxycyclopropyl)methoxy]phenyl]pyridin-2-yl]piperidin-4-yl]methanone]
HT29 cells; Homo sapiens, HT-29, 16 h
  IC50: ≤ 0.01 µM
L929 cells; [1]
  IC50: 0.01 to 0.05 µM

## O=C(C1CCN(c2cc(-c3cc(OCC4(O)CCC4)ccc3F)ccn2)CC1)N1N=CCC1c1cc(F)cc(F)c1 (stereo not shown) [Example 46, (5-(3,5-difluorophenyl)-4,5-dihydro-1H-pyrazol-1-yl)(1-(4-(2-fluoro-5-((1-hydroxycyclobutyl)methoxy)phenyl)pyridin-2-yl)piperidin-4-yl)methanone]
HT29 cells; Homo sapiens, HT-29, 16 h
  IC50: ≤ 0.01 µM
L929 cells; [1]
  IC50: 0.01 to 0.05 µM

## CC(C)(O)COc1ccc(F)c(-c2ccnc(N3CCC(C(=O)N4N=CCC4c4cc(F)cc(F)c4)CC3)c2)c1 (stereo not shown) [Example 47, (5-(3,5-difluorophenyl)-4,5-dihydro-1H-pyrazol-1-yl-5-deuterium)(1-(4-(2-fluoro-5-(2-hydroxy-2-methylpropoxy)phenyl)pyridin-2-yl)piperidin-4-yl)methanone]
HT29 cells
  IC50: 0.01 to 0.05 µM
L929 cells; L929, Murine TNF-α/Z-VAD-FMK
  IC50: 0.01 to 0.05 µM

## NC(=O)c1ccc(N2CCC(C(=O)N3N=CCC3c3ccccc3)CC2)nc1 (stereo not shown) [compound 1, reference compound]
HT29 cells; HT29 necrosis
  inhibitory activity against human HT29 cells: significantly inferior to those of the compounds of the present application
HT29 cells; Homo sapiens, HT-29, 16 h
  IC50: 0.4 to 4 µM
L929 cells; L929 necrosis
  inhibitory activity against mouse L929 cells: almost no inhibitory activities
L929 cells; [1]
  IC50: > 4 µM
